{"source": "patent US20260097111A1", "about": "“ETHER LIPIDS FOR HYPERACTIVATION OF MAMMALIAN DENDRITIC CELLS” (priority 2022, published 2026)", "assay_type_in_all_cases": "cell-based", "key": {"human moDCs [1]": {"system": "human moDCs", "experiment": "moDC viability by LDH release and CellTiter-Glo 2.0", "procedure": "Monocyte Isolation, Storage, and Differentiation into moDC.\nCellTiter-Glo 2.0 Cell Viability Assay. As an additional method to measure cell viability, CellTiter-Glo 2.0 Cell Viability Assay kit from Promega was used. CellTiter-Glo 2.0 reagent was used according to instructions of the manufacturer. Briefly, frozen reagent was thawed at 4° C. and aliquoted. Aliquots were stored at 4° C. in the dark. After removing 150 μL of the cell culture volume for use in other assays, cells were lysed with 50 μL/well CellTiter-Glo reagent by pipetting up and down. After incubating in the dark at RT for 10 min, samples were transferred to white opaque 96-well plates. Luminescence was measured for 500 ms/well using a Spectramax M3 plate reader. Luminescence values were normalized to the mean values of control samples and multiplied 100-fold to report values as percentage viability."}, "human moDCs [2]": {"system": "human moDCs", "experiment": "Cell viability of human moDCs (CellTiter-Glo)", "conditions": "human", "procedure": "(§1) After an overnight incubation, cells and culture supernatant were used for downstream readouts. One hundred and fifty microliters of cell supernatant were collected. Viability was measured using the CellTiter-Glo assay (Promega) which measures ATP content from cells. Fifty microliters of CellTiter-Glo reagent were added to 50 μL of cells. Luminescence was quantified on a SpectraMax m5e plate reader using an integration time of 500 milliseconds. Viability data were set relative to control conditions where cells were treated with only R848. To measure IL-1β secretion, the human IL-1β Lumit kit (Promega) was used to assay cell culture supernatant. Culture supernatant samples were incubated with enzyme-linked antibodies in a 384-well plate for 1 hour before addition of luminescent substrate. Samples were measured for luminescence with an integration time of 500 milliseconds. IL-1β concentrations of samples was determined by interpolation from a standard curve using 4-parameter logistic regression analysis. Studies were performed on three different human donor samples, and each biological condition was tested in triplicate. Graphed data represent means from each donor.\nMeasurement of Cytokine Secretion and Cell Viability. After an overnight incubation, cells and culture supernatant were used for downstream readouts. One hundred and fifty microliters of cell culture supernatant were collected. Viability was measured using the CellTiter-Glo assay (Promega) which measures ATP content from cells. Fifty microliters of CellTiter-Glo reagent were added to 50 μL of cells. Luminescence was quantified on a SpectraMax m5e plate reader using an integration time of 500 milliseconds. Viability data were set relative to control conditions where cells were treated with only R848. To measure IL-1β secretion, the human IL-1β Lumit kit (Promega) was used. […] Samples were measured for luminescence with an integration time of 500 milliseconds. IL-1β concentrations of samples was determined by interpolation from a standard curve using 4-parameter logistic regression analysis. […]"}, "[3]": {"system": "human monocyte-derived dendritic cells (moDCs)", "experiment": "IL-1β secretion by human moDCs treated with lipid and R848", "conditions": "human moDCs primed with R848 for 3 hours, then nigericin; FIG. 2B", "procedure": "(§2) Human monocytes were isolated from Leukopaks purchased from Miltenyi using the StraightFrom Leukopak CD14 microbead kit (Miltenyi). Isolations were completed following manufacturer's instructions. Monocytes were then aliquoted and frozen in fetal bovine serum containing 10% dimethyl sulfoxide. For studies with monocyte-derived dendritic cell (moDC) cultures, monocytes were thawed and cultured in RPMI medium containing 10% FBS, 50 units/mL penicillin, […] streptomycin, 2 mM L-glutamine, 1 mM sodium pyruvate, […] beta-mercaptoethanol, 10 mM HEPES, and Gibco MEM non-essential amino acids (R10 media). To differentiate monocytes into moDCs, recombinant human GM-CSF (50 ng/mL) and IL-4 (25 ng/mL) were added to R10 media. Cells were cultured for 6 days with GM-CSF and IL-4, with an additional cell feeding with R10 containing GM-CSF and IL-4 on day 3.\nSix days after differentiation, moDC were collected and counted. Cells were plated into 96-well flat-bottom plates at 1×10^5 cells/well. Cells were treated with or without 1 μg/mL R848 (final) and with or without a hyperactivating lipid (or vehicle control). In some experiments, MCC950, an inhibitor of the NLRP3 inflammasome, was added at a final concentration of 10 uM. In some experiments, nigericin, which causes NLRP3 inflammasome activation and subsequent pyroptosis, was used as a positive control at 20 uM. Cells and stimuli totaled a final volume of […].\nLipid stocks were then further diluted in PBS to treat cells.\nas §1\nas §2, with “Human moDC Production. Human” for “Human”, “(Miltenyi) according to the” for “(Miltenyi). Isolations were completed following”, “To differentiate” for “For studies with”, “pyruvate, and” for “pyruvate,”, “beta-mercaptoethanol” for “beta-mercaptoethanol, 10 mM HEPES, and Gibco MEM non-essential amino acids”\nHyperactivating Lipid Formulation—Compound 10. Lipid stocks were formulated at 200 μg/mL lipid in 5% Kolliphor P407 (KP407) in PBS."}}, "data": [{"smiles": "CO[C@@H]1C[C@@H](C[C@H]2CC[C@H](C)[C@H]([C@@H](C)C(=O)O)O2)O[C@]2(O[C@](C)([C@H]3CC[C@@](C)([C@@H]4O[C@@H]([C@H]5O[C@@](O)(CO)[C@H](C)C[C@@H]5C)C[C@@H]4C)O3)C[C@H]2C)[C@@H]1C", "note": "[nigericin]", "values": [{"measurement": "cell viability (CellTiter-Glo)", "setting": "human moDCs [1]", "value": "below 2%"}, {"measurement": "cell viability (LDH release assay)", "setting": "human moDCs [1]", "value": "below 75%"}, {"measurement": "decrease in cell viability", "setting": "human moDCs [2]", "value": "approximately 50%"}, {"measurement": "IL-1β secretion", "setting": "[3]", "value": "IL-1β was produced"}]}]}
